# Molecular target: CREBBP (Homo sapiens (Human), UniProt Q92793)
# Assay: In vitro enzyme inhibition assay - CREBBP inhibition (AlphaScreen, biotinylated H4-tetraacetyl peptide)
# Assay type: binding
# Settings: Table 28; AlphaScreen, H4-tetraacetyl peptide
# In short: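 His-tagged CREBBP expressed in E. coli (50 nM final) incubated with biotinylated H4K5/8/12/16(Ac) peptide (20 nM final) in HEPES pH 7.3 buffer, 0.4% DMSO, 20 min at room temperature.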
# CREBBP, sequence (Q92793 1081-1197): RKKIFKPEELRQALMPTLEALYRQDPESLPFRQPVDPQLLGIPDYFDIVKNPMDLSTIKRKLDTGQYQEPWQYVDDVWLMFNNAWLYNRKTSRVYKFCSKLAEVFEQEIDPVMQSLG
row,SMILES,IC50
1,"Cc1cccc(F)c1Oc1nc(NC(C)c2ccccc2)cc(-c2ccc(=O)n(C)c2)n1 (centres unmarked) [Example 298, 5-[2-(2-Fluoro-6-methyl-phenoxy)-6-(1-phenyl-ethylamino)-pyrimidin-4-yl]-1-methyl-1H-pyridin-2-one]",< 500 nM
2,"Cc1ccccc1C(C)Nc1cc(-c2ccc(=O)n(C)c2)nc(Oc2c(C)cccc2F)n1 (centres unmarked) [Example 299, 5-[2-(2-Fluoro-6-methyl-phenoxy)-6-(1-o-tolyl-ethylamino)-pyrimidin-4-yl]-1-methyl-1H-pyridin-2-one]",< 500 nM
3,"Cc1cccc(C)c1CNc1cc(-c2ccc(=O)n(C)c2)nc(Oc2c(C)cccc2F)n1 [Example 300, 5-[6-(2,6-Dimethyl-benzylamino)-2-(2-fluoro-6-methyl-phenoxy)-pyrimidin-4-yl]-1-methyl-1H-pyridin-2-one]",< 500 nM
4,"Cc1ccc(C)c(CNc2cc(-c3ccc(=O)n(C)c3)nc(Oc3c(C)cccc3F)n2)c1 [Example 301, 5-[6-(2,5-Dimethyl-benzylamino)-2-(2-fluoro-6-methyl-phenoxy)-pyrimidin-4-yl]-1-methyl-1H-pyridin-2-one]",< 500 nM
5,"Cc1cccc(F)c1Oc1nc(NCc2ccccn2)cc(-c2ccc(=O)n(C)c2)n1 [Example 302, 5-{2-(2-Fluoro-6-methyl-phenoxy)-6-[(pyridin-2-ylmethyl)-amino]-pyrimidin-4-yl}-1-methyl-1H-pyridin-2-one]",< 500 nM
6,"Cc1cccc(F)c1Oc1nc(NCc2cccnc2)cc(-c2ccc(=O)n(C)c2)n1 [Example 303, 5-{2-(2-Fluoro-6-methyl-phenoxy)-6-[(pyridin-3-ylmethyl)-amino]-pyrimidin-4-yl}-1-methyl-1H-pyridin-2-one]",< 500 nM
7,"CCCCNc1cc(-c2ccc(=O)n(C)c2)nc(Oc2c(C)cccc2F)n1 [Example 304, 5-[6-Butylamino-2-(2-fluoro-6-methyl-phenoxy)-pyrimidin-4-yl]-1-methyl-1H-pyridin-2-one]",< 500 nM
8,CCC[C@@H](C)Nc1cc(-c2ccc(=O)n(C)c2)nc(Oc2c(C)cccc2F)n1 [Example 305],< 500 nM
9,"Cc1cccc(F)c1Oc1nc(N[C@H](C)c2ccccc2)cc(-c2ccc(=O)n(C)c2)n1 [Example 306, (R)-5-[2-(2-Fluoro-6-methyl-phenoxy)-6-(1-phenyl-ethylamino)-pyrimidin-4-yl]-1-methyl-1H-pyridin-2-one]",< 500 nM
10,"Cc1cccc(F)c1Oc1nc(N[C@@H]2CCCc3ccccc32)cc(-c2ccc(=O)n(C)c2)n1 [Example 307, (R)-5-[2-(2-Fluoro-6-methyl-phenoxy)-6-(1,2,3,4-tetrahydro-naphthalen-1-ylamino)-pyrimidin-4-yl]-1-methyl-1H-pyridin-2-one]",< 500 nM
11,CCC[C@H](C)Nc1cc(-c2ccc(=O)n(C)c2)nc(Oc2c(C)cccc2F)n1 [Example 308],< 500 nM
12,"Cc1cccc(F)c1Oc1nc(NCCC(C)C)cc(-c2ccc(=O)n(C)c2)n1 [Example 309, 5-[2-(2-Fluoro-6-methyl-phenoxy)-6-(3-methyl-butylamino)-pyrimidin-4-yl]-1-methyl-1H-pyridin-2-one]",< 500 nM
13,"Cc1cccc(F)c1Oc1nc(N[C@@H](C)c2ccccc2)cc(-c2ccc(=O)n(C)c2)n1 [Example 310, (S)-5-[2-(2-Fluoro-6-methyl-phenoxy)-6-(1-phenyl-ethylamino)-pyrimidin-4-yl]-1-methyl-1H-pyridin-2-one]",< 500 nM
14,"Cc1cccc(F)c1Oc1nc(N[C@H]2CCCc3ccccc32)cc(-c2ccc(=O)n(C)c2)n1 [Example 311, (S)-5-[2-(2-Fluoro-6-methyl-phenoxy)-6-(1,2,3,4-tetrahydro-naphthalen-1-ylamino)-pyrimidin-4-yl]-1-methyl-1H-pyridin-2-one]",< 500 nM
15,"CCCCNc1cc(-c2ccc(=O)n(C)c2)nc(Oc2c(C)cccc2Cl)n1 [Example 312, 5-[6-Butylamino-2-(2-chloro-6-methyl-phenoxy)-pyrimidin-4-yl]-1-methyl-1H-pyridin-2-one]",< 500 nM
16,"CCC[C@@H](C)Nc1cc(-c2ccc(=O)n(C)c2)nc(Oc2c(C)cccc2Cl)n1 [Example 313, (R)-5-[2-(2-Chloro-6-methyl-phenoxy)-6-(1-methyl-butylamino)-pyrimidin-4-yl]-1-methyl-1H-pyridin-2-one]",< 500 nM
17,"CCC[C@H](C)Nc1cc(-c2ccc(=O)n(C)c2)nc(Oc2c(C)cccc2Cl)n1 [Example 314, (S)-5-[2-(2-Chloro-6-methyl-phenoxy)-6-(1-methyl-butylamino)-pyrimidin-4-yl]-1-methyl-1H-pyridin-2-one]",< 500 nM
18,"Cc1cccc(Cl)c1Oc1nc(NCCC(C)C)cc(-c2ccc(=O)n(C)c2)n1 [Example 315, 5-[2-(2-Chloro-6-methyl-phenoxy)-6-(3-methyl-butylamino)-pyrimidin-4-yl]-1-methyl-1H-pyridin-2-one]",< 500 nM
19,"CCCCNc1cc(-c2ccc(=O)n(C)c2)nc(Oc2c(C)cccc2C#N)n1 [Example 316, 2-[4-Butylamino-6-(1-methyl-6-oxo-1,6-dihydro-pyridin-3-yl)-pyrimidin-2-yloxy]-3-methyl-benzonitrile]",< 500 nM

row,SMILES,IC50
1,"CCC[C@@H](C)Nc1cc(-c2ccc(=O)n(C)c2)nc(Oc2c(C)cccc2C#N)n1 [Example 317, (R)-3-Methyl-2-[4-(1-methyl-butylamino)-6-(1-methyl-6-oxo-1,6-dihydro-pyridin-3-yl)-pyrimidin-2-yloxy]-benzonitrile]",< 500 nM
2,"Cc1cccc(C#N)c1Oc1nc(N[C@H](C)c2ccccc2)cc(-c2ccc(=O)n(C)c2)n1 [Example 318, (R)-3-Methyl-2-[4-(1-methyl-6-oxo-1,6-dihydro-pyridin-3-yl)-6-(1-phenyl-ethylamino)-pyrimidin-2-yloxy]-benzonitrile]",< 500 nM
3,"Cc1cccc(C#N)c1Oc1nc(NCc2ccccn2)cc(-c2ccc(=O)n(C)c2)n1 [Example 319, 3-Methyl-2-{4-(1-methyl-6-oxo-1,6-dihydro-pyridin-3-yl)-6-[(pyridin-2-ylmethyl)-amino]-pyrimidin-2-yloxy}-benzonitrile]",< 500 nM
4,"Cc1cccc(C#N)c1Oc1nc(NCc2ccccc2)cc(-c2ccc(=O)n(C)c2)n1 [Example 320, 2-[4-Benzylamino-6-(1-methyl-6-oxo-1,6-dihydro-pyridin-3-yl)-pyrimidin-2-yloxy]-3-methyl-benzonitrile]",< 500 nM
5,"CCC[C@H](C)Nc1cc(-c2ccc(=O)n(C)c2)nc(Oc2c(C)cccc2C#N)n1 [Example 321, (S)-3-Methyl-2-[4-(1-methyl-butylamino)-6-(1-methyl-6-oxo-1,6-dihydro-pyridin-3-yl)-pyrimidin-2-yloxy]-benzonitrile]",< 500 nM
6,"Cc1cccc(C#N)c1Oc1nc(N[C@@H](C)c2ccccc2)cc(-c2ccc(=O)n(C)c2)n1 [Example 322, (S)-3-Methyl-2-[4-(1-methyl-6-oxo-1,6-dihydro-pyridin-3-yl)-6-(1-phenyl-ethylamino)-pyrimidin-2-yloxy]-benzonitrile]",< 500 nM
7,"Cc1cccc(C#N)c1Oc1nc(NCc2cccnc2)cc(-c2ccc(=O)n(C)c2)n1 [Example 323, 3-Methyl-2-{4-(1-methyl-6-oxo-1,6-dihydro-pyridin-3-yl)-6-[(pyridin-3-ylmethyl)-amino]-pyrimidin-2-yloxy}-benzonitrile]",< 500 nM
8,"COc1nc(NCc2ccccc2)cc(-c2ccc(=O)n(C)c2)n1 [Example 324, 5-(6-Benzylamino-2-methoxy-pyrimidin-4-yl)-1-methyl-1H-pyridin-2-one]",< 500 nM
9,"CCCCNc1cc(-c2ccc(=O)n(C)c2)nc(OC)n1 [Example 325, 5-(6-Butylamino-2-methoxy-pyrimidin-4-yl)-1-methyl-1H-pyridin-2-one]",500 to 5000 nM
10,"CCCC(C)Nc1cc(-c2ccc(=O)n(C)c2)nc(OC)n1 (centres unmarked) [Example 326, 5-[2-Methoxy-6-(1-methyl-butylamino)-pyrimidin-4-yl]-1-methyl-1H-pyridin-2-one]",500 to 5000 nM
11,"COc1nc(NC(C)c2ccccc2)cc(-c2ccc(=O)n(C)c2)n1 (centres unmarked) [Example 327, 5-[2-Methoxy-6-(1-phenyl-ethylamino)-pyrimidin-4-yl]-1-methyl-1H-pyridin-2-one]",< 500 nM
12,"COc1nc(NCc2ccccn2)cc(-c2ccc(=O)n(C)c2)n1 [Example 328, 5-{2-Methoxy-6-[(pyridin-2-ylmethyl)-amino]-pyrimidin-4-yl}-1-methyl-1H-pyridin-2-one]",< 500 nM
13,"COc1nc(NCCc2ccccc2)cc(-c2ccc(=O)n(C)c2)n1 [Example 329, 5-(2-Methoxy-6-phenethylamino-pyrimidin-4-yl)-1-methyl-1H-pyridin-2-one]",< 500 nM
14,"COc1nc(NCc2cccnc2)cc(-c2ccc(=O)n(C)c2)n1 [Example 330, 5-{2-Methoxy-6-[(pyridin-3-ylmethyl)-amino]-pyrimidin-4-yl}-1-methyl-1H-pyridin-2-one]",< 500 nM
15,"COc1nc(NCC2CCCc3ccccc32)cc(-c2ccc(=O)n(C)c2)n1 (centres unmarked) [Example 331, 5-{2-Methoxy-6-[(1,2,3,4-tetrahydro-naphthalen-1-ylmethyl)-amino]-pyrimidin-4-yl}-1-methyl-1H-pyridin-2-one]",< 500 nM
16,"Cc1cccc(F)c1Oc1nc(N)cc(-c2ccc(=O)n(C)c2)n1 [Example 332, 5-[6-Amino-2-(2-fluoro-6-methyl-phenoxy)-pyrimidin-4-yl]-1-methyl-1H-pyridin-2-one]",< 500 nM
17,"Cc1cccc(Cl)c1Oc1nc(N)cc(-c2ccc(=O)n(C)c2)n1 [Example 333, 5-[6-Amino-2-(2-chloro-6-methyl-phenoxy)-pyrimidin-4-yl]-1-methyl-1H-pyridin-2-one]",< 500 nM
18,"Cc1cccc(Cl)c1Oc1nc(N)cc(-c2cc(C)c(=O)n(C)c2)n1 [Example 334, 5-[6-Amino-2-(2-chloro-6-methyl-phenoxy)-pyrimidin-4-yl]-1,3-dimethyl-1H-pyridin-2-one]",< 500 nM
19,"Cc1cccc(C)c1Oc1nc(C#N)cc(-c2cc(C)c(=O)n(C)c2)n1 [Example 335, 6-(1,5-dimethyl-6-oxo(3-hydropyridyl))-2-(2,6-dimethylphenoxy)pyrimidine-4-carbonitrile]",< 500 nM

# Reference: patent US10202360B2 (CELGENE QUANTICEL RESEARCH, INC., priority 2016, dated 2019)
